According to the OPERA property sets (Mansouri et al. 2018):

Conditions: not given

Structure (SMILES) | melting point [°C] | boiling point [°C] | log10 vapour pressure (mmHg) | ready biodegradability | log10 Koc (L/kg)
CCNCC(O)c1cccc(O)c1 (stereo not drawn) | 148 | – | – | – | –
Cc1ccc(C(C)C)cc2c(C)ccc1-2 | 31.5 | – | – | – | –
CC(C)(C)CCCl | – | 115 | – | – | –
O=C(O)c1cc(I)c(I)c(I)c1 | 292 | – | – | – | –
CS(=O)(=O)c1ccc(C(=O)C2C(=O)CCCC2=O)c(Cl)c1 | 139 | – | -7.43 | – | –
C[Si](C)(C)CCl | – | 98.5 | – | – | –
c1ccc(-c2c3ccccc3c(-c3ccccc3)c3ccccc23)cc1 | 246 | – | -9.84 | – | –
N#Cc1cccc(Br)c1 | – | 225 | – | – | –
CCOC(=O)CI | – | 179 | -0.195 | – | –
O=c1occcc1O | 93.8 | – | – | – | –
Clc1ccc(-c2cc(Cl)c(Cl)c(Cl)c2Cl)cc1Cl | – | – | -5.79 | – | –
CCCC[Si](C)(C)Cl | – | 139 | – | – | –
N#Cc1ccc(Cl)cc1N | 161 | – | – | – | –
CNC(=O)ON=C(C)C(C)SC (stereo not drawn) | 25 | – | -4.1 | – | –
O=Cc1ccc(F)cc1 | -10 | 182 | – | – | –
O=C(NC(=O)c1c(F)cccc1F)Nc1cc(Cl)c(F)c(Cl)c1F | 222 | – | -11.2 | – | –
O=C(O)CCCCCc1ccccc1 | 23 | – | – | – | –
ClC(c1ccccc1)(c1ccccc1)c1ccccc1 | 114 | 310 | – | not readily biodegradable | –
ClC[Si](Cl)(Cl)Cl | – | 118 | – | – | –
Oc1ccc(O)c(Cc2ccccc2)c1 | 106 | – | – | – | –
COc1ccc(-c2cc(=O)c3c(O)c(OC)c(O)cc3o2)cc1 | 221 | – | – | – | –
COc1ccc(C)c(N)c1 | 47 | 253 | – | – | –

Structure (SMILES) | melting point [°C] | boiling point [°C] | log10 vapour pressure (mmHg) | ready biodegradability | log10 Koc (L/kg)
C=CCOC(=O)C(=C)C | – | – | 0.761 | readily biodegradable | –
Clc1ccc(C2(Cn3cncn3)CC(Br)CO2)c(Cl)c1 (stereo not drawn) | 84 | – | -7.52 | – | –
COC1CCCCC1 | -74.4 | 133 | – | – | –
CCCNc1ccccc1 | – | 222 | – | – | –
CCC(Cc1c(I)cc(I)c(O)c1I)C(=O)O (stereo not drawn) | 147 | – | – | – | –
CC1=CCC(C)C1 (stereo not drawn) | – | 93.2 | – | – | –
CCC(C)C(C)(COC(N)=O)COC(N)=O (stereo not drawn) | 77 | – | – | – | –
O=c1ccn([C@H]2CC[C@@H](CO)O2)c(=O)[nH]1 | 128 | – | – | – | –
N=C(N)NC(=O)Cc1c(Cl)cccc1Cl | 226 | – | – | – | –
NS(=O)(=O)c1ccc(CCCCO)cc1 | 78.5 | – | – | – | –
COC(=O)c1ccccc1S(=O)(=O)NC(=O)Nc1nc(C)cc(C)n1 | 204 | – | – | – | 1.62
CCOCOC(=O)c1ccccc1Nc1c(Cl)ccc(C)c1Cl | 73.5 | – | – | – | –
CNc1ccccc1C(=O)OC | 19 | 255 | – | – | –
CC(C)OC(=O)[C@H](O)[C@@H](O)C(=O)OC(C)C | – | 275 | – | – | –
CCC(C)C | -160 | – | 2.84 | – | –
CCCCCC(C)O (stereo not drawn) | – | 159 | 0.0899 | – | –
O=[N+]([O-])c1ccc(CO)cc1 | 96.5 | – | – | – | –
Sc1c(Cl)c(Cl)c(Cl)c(Cl)c1Cl | 232 | – | – | – | –
OCCC(F)(F)C(F)(F)C(F)(F)C(F)(F)C(F)(F)C(F)(F)C(F)(F)C(F)(F)F | – | – | – | not readily biodegradable | –
CC(C)OC(=O)C1(S(=O)(=O)c2ccc([N+](=O)[O-])cc2)CCCCCC1 | 83.5 | – | – | – | –
O=C(O)C(O)C(=O)O | 157 | – | – | – | –
Nc1ccc2[nH]ncc2c1 | 176 | – | – | – | –

Structure (SMILES) | melting point [°C] | boiling point [°C] | log10 vapour pressure (mmHg) | ready biodegradability | log10 Koc (L/kg)
CC(C)(C)CC(=O)O | 6.5 | 190 | – | – | –
O=C(O)COc1cccc(Cl)c1Cl | 174 | – | – | – | –
O=C=Nc1cccc(N=C=O)c1 | 50 | – | – | – | –
Cl.NCC(F)(F)F | 195 | – | – | – | –
CCNC1=NC(=O)C(c2ccccc2)O1 (stereo not drawn) | 148 | – | – | – | –
Cc1cc(C)c(C(=O)O)cc1C | 152 | – | – | – | –
CC(C)(C)C(O)(CCc1ccc(Cl)cc1)Cn1cncn1 (stereo not drawn) | 102 | – | -7.89 | – | –
CCCCSCCCC | -79.7 | 185 | 0.0792 | – | –
CC(C)c1ccc(Cl)cc1 | -12.3 | 198 | – | – | –
C#CC(C)(C)NC(=O)c1ccccc1 | – | – | – | – | 1.54
C[C@]12CCC(=O)C[C@@H]1CC[C@@H]1[C@@H]2CC[C@]2(C)[C@@H](O)CC[C@@H]12 | 181 | – | – | – | –
CC(O)CN(C)C (stereo not drawn) | 124 | 124 | – | – | –
O=C(O)c1ccnc2ccccc12 | 254 | – | – | – | –
COc1ccccc1N(C)C | – | 210 | – | – | –
COC(=O)Nc1cccc(OC(=O)Nc2cccc(C)c2)c1 | 143 | – | -11 | – | 3.38
CCCCCCCC(=O)OC(C)C | – | – | -0.963 | – | –
c1ccc(O[Si](Oc2ccccc2)(Oc2ccccc2)Oc2ccccc2)cc1 | 49 | 417 | – | – | –
CCN(CC)CCCC(C)N (stereo not drawn) | – | 201 | – | – | –
CCCCCCCCCCCCCCCC(C)C | 5.7 | 311 | – | – | –
CN(C)CCC#N | – | 173 | – | – | –

Same assay, conditions: fish

Structure (SMILES) | log10 biotransformation half-life (days) | log10 BCF
C1CCC(C2CCCCC2)CC1 | 0.38 | –
COP(=S)(OC)Oc1c(Cl)cc(C)cc1Cl | -0.11 | 2.86
c1cc[n+]2c(c1)-c1cccc[n+]1CC2 | – | 0.76
CNc1cccc(C)c1 | -0.79 | 0.86
CC1=CC(=O)CC(C)(C)C1 | -1.29 | 0.3
Clc1cc(-c2cc(Cl)c(Cl)c(Cl)c2Cl)c(Cl)c(Cl)c1Cl | 3 | –
Clc1ccc(-c2cc(Cl)c(Cl)c(Cl)c2Cl)cc1Cl | 2.73 | –
ClC(c1ccccc1)(c1ccccc1)c1ccccc1 | -0.15 | 2.63
CC(C)(C)C(O)(CCc1ccc(Cl)cc1)Cn1cncn1 (stereo not drawn) | 0.77 | –
